Several values for one entry are separate records, joined by “and”; a condition that tells them apart may be missing. Equal entries are not always repeated.
Assays:
[1] = tested on: Oryctolagus cuniculus; assay: Effect on Rabbits (Fed a Cholesterol-Free Casein Diet ) for plasma cholesterol at the dose of 10 mg/kg (post treatment); assay type: functional, organism-based; parameters: dose 10 mg/kg
[2] = tested on: Oryctolagus cuniculus; assay: Effect on Rabbits (Fed a Cholesterol-Free Casein Diet ) for plasma cholesterol at the dose of 10 mg/kg (pretreatment); assay type: functional, organism-based; parameters: dose 10 mg/kg
[3] = tested on: Oryctolagus cuniculus; assay: Effect on Rabbits (Fed a Cholesterol-Free Casein Diet ) for plasma cholesterol at the dose of 3 mg/kg (pretreatment); assay type: functional, organism-based; parameters: dose 3 mg/kg
[4] = tested on: Rattus norvegicus; assay: Effect on the Cholesterol fed rats for HDL-C in rats at the dose of 0.001 mg/kg by Chroinc screen test; assay type: functional; also: unit not given here
[5] = tested on: Rattus norvegicus; assay: Effect on the Cholesterol fed rats for HDL-C in rats at the dose of 0.01 mg/kg by Chroinc screen test; assay type: functional
[6] = tested on: Rattus norvegicus; assay: Effect on the Cholesterol fed rats for HDL-C in rats at the dose of 0.3 mg/kg by Chroinc screen test; assay type: functional; also: unit not given here
[7] = tested on: Rattus norvegicus; assay: Effect on the Cholesterol fed rats for HDL-C in rats at the dose of 3 mg/kg by Chroinc screen test; assay type: functional
[8] = tested on: Rattus norvegicus; assay: Effect on the Normal, Chow fed rats for Plasma total triglyceride level in rats at the dose of 3 mg/kg; assay type: functional, organism-based; parameters: dose 3 mg/kg
[9] = tested on: Rattus norvegicus; assay: Effect on the Cholesterol fed rats for non-HDL-C in rats at the dose of 0.01 mg/kg by Chroinc screen test; assay type: functional; also: unit not given here
[10] = tested on: Rattus norvegicus; assay: Effect on the Cholesterol fed rats for non-HDL-C in rats at the dose of 0.03 mg/kg by Chroinc screen test; assay type: functional; also: unit not given here
[11] = tested on: Rattus norvegicus; assay: Effect on the Cholesterol fed rats for non-HDL-C in rats at the dose of 0.1 mg/kg by Chroinc screen test; assay type: functional
[12] = tested on: Rattus norvegicus; assay: Evaluated for %change in cholesterol fed rats for total cholesterol at the dose of 1 mg/kg determined by Chronic screen test; assay type: functional
[13] = tested on: Rattus norvegicus; assay: Evaluated for %change in cholesterol fed rats for HDL-C at the dose of 10 mg/kg determined by Chronic screen test; assay type: functional
[14] = tested on: Rattus norvegicus; assay: Evaluated for %change in cholesterol fed rats for non-HDL-C at the dose of 0.1 mg/kg determined by Chronic screen test; assay type: functional
[15] = tested on: Rattus norvegicus; assay: Evaluated for %change in cholesterol fed rats for non-HDL-C at the dose of 3 mg/kg determined by Chronic screen test; assay type: functional
[16] = tested on: Rattus norvegicus; assay: Evaluated for %change in cholesterol fed rats for total cholesterol at the dose of 0.001 mg/kg determined by Chronic screen test; assay type: functional
[17] = tested on: Rattus norvegicus; assay: Evaluated for %change in Normal, Chow fed for rats Plasma total triglyceride plasma level in rats at the dose of 30 mg/kg; assay type: functional
[18] = tested on: Rattus norvegicus; assay: Evaluated for %change in Normal, Chow fed rats for total cholesterol plasma level in rats at the dose of 10 mg/kg; assay type: functional
[19] = tested on: Rattus norvegicus; assay: Evaluated for %change in cholesterol fed rats at the dose of 10 mg/kg determined by Acute screen test; assay type: functional
[20] = tested on: Rattus norvegicus; assay: Evaluated for %change in cholesterol fed rats for HDL-C at the dose of 0.01 mg/kg determined by Chronic screen test; assay type: functional
[21] = tested on: Rattus norvegicus; assay: Evaluated for %change in cholesterol fed rats for HDL-C at the dose of 0.3 mg/kg determined by Chronic screen test; assay type: functional
[22] = tested on: Rattus norvegicus; assay: Evaluated for %change in cholesterol fed rats for HDL-C at the dose of 1 mg/kg determined by Chronic screen test; assay type: functional
[23] = tested on: Rattus norvegicus; assay: Effect on the Normal, Chow fed rats for total cholesterol plasma level in rats at the dose of 10 mg/kg; assay type: functional, organism-based; parameters: dose 10 mg/kg
[24] = tested on: Rattus norvegicus; assay: Effect on the Normal, Chow fed rats for total cholesterol plasma level in rats at the dose of 3 mg/kg; assay type: functional, organism-based; parameters: dose 3 mg/kg
[25] = tested on: Rattus norvegicus; assay: Effect on the Normal, Chow fed rats for total cholesterol plasma level in rats at the dose of 30 mg/kg; assay type: functional, organism-based; parameters: dose 30 mg/kg
[26] = tested on: Rattus norvegicus; assay: Effect on the plasma cholesterol level in rats at the dose of 1 mg/kg by Acute screen test; assay type: functional, organism-based; parameters: dose 1 mg/kg

## CC(C)c1cc(C(C)C)c(CC(=O)NS(=O)(=O)Oc2c(C(C)C)cccc2C(C)C)c(C(C)C)c1 [AVASIMIBE]
[1]
  Plasma cholesterol: 118 mg/dL
[2]
  Plasma cholesterol: 209 mg/dL
[3]
  Plasma cholesterol: 250 mg/dL
[4]
  HDL-C: 16
[5]
  HDL-C: 15
[6]
  HDL-C: 20
[7]
  HDL-C: 33
[8]
  Plasma TG: 95 mg/dL
[9]
  Non-HDL-C: 604
[10]
  Non-HDL-C: 320
[11]
  Non-HDL-C: 114 and 306
[12]
  Change: -61%
[13]
  Change: 155%
[14]
  Change: -45% and -41%
[15]
  Change: -72%
[16]
  Change: 3%
[17]
  Change: -66%
[18]
  Change: -25%
[19]
  Change: -72%
[20]
  Change: -12%
[21]
  Change: 42%
[22]
  Change: 76%
[23]
  Plasma TC: 44 mg/dL
[24]
  Plasma TC: 49 mg/dL
[25]
  Plasma TC: 41 mg/dL
[26]
  Plasma cholesterol: 72 mg/dL
